Laboratory results reported in PubChem BioAssay (NCI).
Several values for one entry are separate records, joined by “and”; a condition that tells them apart may be missing. Identical values can stand only once.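 Grown in 96-well plates, cells were treated for 48 hours with each compound at five concentrations. Insufficient inhibition: endpoint recorded as highest concentration tested. GI50 is the concentration that inhibits growth by half. TGI is the concentration that stops growth completely.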

Key:
Test in all cases: inhibition of tumour cell growth, NCI panel, 48 h
[1] = test system: SK-MEL-5 melanoma
[2] = test system: HT29 colon
[3] = test system: OVCAR-8 ovarian
[4] = test system: HOP-92 NSCLC
[5] = test system: SR leukemia
[6] = test system: RPMI-8226 leukemia
[7] = test system: SNB-75 CNS
[8] = test system: TK-10 renal
[9] = test system: KM12 colon
[10] = test system: 786-0 renal

| SMILES | GI50 [1] | TGI [1] | GI50 [2] | TGI [2] | GI50 [3] [µM] | TGI [3] | GI50 [4] | TGI [4] | GI50 [5] | TGI [5] | GI50 [6] | TGI [6] [µM] | GI50 [7] [µM] | TGI [7] | GI50 [8] | TGI [8] | GI50 [9] | TGI [9] | GI50 [10] | TGI [10] |
| --- | --- | --- | --- | --- | --- | --- | --- | --- | --- | --- | --- | --- | --- | --- | --- | --- | --- | --- | --- | --- |
| CC1CC(C)/C(=N/NC(N)=O)C(C(O)CC2CCC(=O)NC2=O)C1 (stereo not drawn) | 2.85 µM | 34.8 µM | 3.49 µM | > 100 µM | 2.71 | 57.5 µM | 2.31 µM | 31.5 µM | 8.1 µM | > 100 µM | 6.77 µM | 94.1 | 4.26 | > 100 µM | 1.64 µM | 10.2 µM | 3.05 µM | 42.4 µM | 3.46 µM | > 100 µM |
| O=C(Nc1cccnc1)c1cccc([N+](=O)[O-])c1 | > 100 µM | > 100 µM | > 100 µM | > 100 µM | > 100 | > 100 µM | > 100 µM | > 100 µM | > 100 µM | > 100 µM | > 100 µM | > 100 | > 100 | > 100 µM | > 100 µM | > 100 µM | > 100 µM | > 100 µM | > 100 µM | > 100 µM |
| c1ccc2c(Nc3ccc(Oc4ccc(Nc5c6ccccc6nc6ccccc56)cc4)cc3)c3ccccc3nc2c1 | – | 3.4 µM | 0.237 µM and 0.212 µM | 0.569 µM and 0.496 µM | – | 0.526 µM | 0.285 µM | 1.5 µM and 4.69 µM | 0.126 µM | 0.323 µM | 0.187 µM | 0.434 | 1.59 | 3.98 µM and 1.45 µM | – | 0.97 µM | 0.21 µM and 0.187 µM | 0.441 µM and 0.376 µM | – | 0.0305 µM |
| CC(C)=CC(O)C/C(C)=C/CC/C(C)=C/CCC1(C)C(CCCO)/C(=C(/C)C=O)CCC1(C)O (stereo not drawn) | – | > 100 µM | – | 70.9 µM | – | > 100 µM | – | > 100 µM | – | 83.3 µM | – | 47.2 | – | > 100 µM | – | > 100 µM | – | 52.9 µM | – | > 100 µM |
| O=C(NCC(=O)N1CC[C@H](NC2CCC(O)(c3ccc(-c4ncccn4)cn3)CC2)C1)c1cccc(C(F)(F)F)c1 (stereo partly drawn) | 18.2 µM | 46.6 µM | 53 µM | > 100 µM | > 100 | > 100 µM | 30.4 µM | > 100 µM | 25.4 µM | > 100 µM | 31 µM | > 100 | 20.2 | > 100 µM | > 100 µM | > 100 µM | > 100 µM | > 100 µM | > 100 µM | > 100 µM |
| O=c1[nH]ccc2nc(-c3ccc(CN4CCC(c5nc(-c6ccccn6)n[nH]5)CC4)cc3)c(-c3ccccc3)cc12 | 6.03 µM | 24 µM | 1.98 µM | > 100 µM | 20 | > 100 µM | 0.121 µM | > 21.3 µM | 2.34 µM | 66 µM | 4.85 µM | > 50.2 | 0.0534 | 7.75 µM | 3.37 µM | 30.4 µM | 14.7 µM | > 100 µM | 0.737 µM | 18.1 µM |
| C/C=C(\CCC1NCCc2c1[nH]c1ccccc21)[Si](C)(C)C (stereo not drawn) | 5.63 µM and 2.32 µM | 10.2 µM and 5.23 µM | 5.46 µM and 2.21 µM | 10.4 µM and 5.03 µM | – | 19.5 µM and 8.79 µM | 5.2 µM and 2.56 µM | 12.3 µM and 8.5 µM | 8.12 µM and 2.7 µM | 18.4 µM and 8.42 µM | 19.8 µM and 2.36 µM | – | – | 14.8 µM and 16.7 µM | 14.3 µM and 5.62 µM | 27.5 µM and 17 µM | 6.18 µM and 1.9 µM | 11.3 µM and 3.64 µM | 5.26 µM and 1.81 µM | 9.79 µM and 3.34 µM |
| COc1cc(C2CC(c3ccc(Nc4ccnc5cc(Cl)ccc45)cc3)=NN2C=O)cc(OC)c1OC (stereo not drawn) | 1.98 µM | 6.28 µM | 2.83 µM | 7.17 µM | 9.98 | > 100 µM | 1.83 µM | 5.59 µM | 2.58 µM | 6.49 µM | 2.56 µM | 8.63 | 5.19 | 32.5 µM | 3.09 µM | 9.4 µM | 5.87 µM | > 100 µM | 2.31 µM | 4.8 µM |
| Cn1ccnc1C(=O)/C=C/c1ccc(C(=O)Nc2ccccc2O)cc1 | 3.36 µM | 11.1 µM | 2.4 µM | 7.3 µM | 3.29 | 14.9 µM | 2.11 µM | 6.68 µM | 0.307 µM | 6.55 µM | 0.62 µM | 3.8 | 0.918 | 8.58 µM | 3.2 µM | 12.7 µM | 1.96 µM | 4.44 µM | 1.98 µM | 4.64 µM |
| CN(C)c1ccc(/C=C/c2ccnc3ccccc23)cc1N | – | 11.5 µM | – | 17.7 µM | – | 22.1 µM | – | 5.87 µM | – | 5.87 µM | – | 15.5 | – | 19.5 µM | – | 20.2 µM | – | 65.4 µM | – | 53.5 µM |
| COc1ccc(N(C)c2nc(Cl)nc3ccn(C)c23)cc1 | < 0.01 µM | < 0.01 µM | < 0.01 µM | 0.12 µM | < 0.01 | > 100 µM | 1.79 µM | 67.5 µM | < 0.01 µM | > 100 µM | < 0.01 µM | > 100 | < 0.01 | > 100 µM | 91.3 µM | > 100 µM | < 0.01 µM | > 100 µM | < 0.01 µM | > 100 µM |
